# Results taken from patent US20070161551A1, “Methods and compositions for the treatment of lipodystrophy” (priority 2004, published 2007).
# Where two headings read alike, the source gives them in different places.
# Legend:
# [1] = test system: patients with overt AIDS wasting; conditions: cited from earlier work
# patients with HIV/AIDS = conditions: cited from earlier work; for insulin-like growth factor-I (IGF-I) levels: during treatment
# [2] = test system: AIDS patients that manifest symptoms of HADDS; assay: Combined rhGH (SEROSTIM) plus statin therapy in AIDS patients with HADDS symptoms; type: in vivo, human; conditions: after 3 months; combined therapy versus rhGH alone or statin alone
# Experimental: AIDS patients with a history of long-term use (an average of 12 months) of HAART that manifest symptoms of HADDS, including buffalo humps, central adiposity and peripheral muscle wasting associated with fatigue, along with elevated levels of plasma triglycerides and/or cholesterol are selected for the study. Therapy with rhGH (SEROSTIM®) is initiated in all patients at a dose of e.g., 4 mg/day subcutaneously (other concentrations, e.g., 6 mg/day could be used). At the same time, the patients are treated with a statin in a dosage amount of 40 mg/day, which is administered orally. This dosage amount is based on the average dose of statin drugs commonly administered for antilipemic purposes. The patients are maintained on this […] for three months and monitored every two weeks for improvements of fat maldistribution. In parallel therapies, patients are treated with just rhGH and just statin.
# [3] = test system: HIV/AIDS wasting patients; conditions: cited from earlier work
# patients with HADDS = conditions: cited from earlier work
# normal mice = conditions: cited from earlier work
# ob/ob mice = conditions: daily injections, cited from earlier work
# [4] = at 12 weeks, not deemed clinically significant (Engleson et al. 1999)
# [5] = rhGH 4 to 6 mg/day, by four months (Torres 1999)
substance,measurement,setting,value
"rhGH: Recombinant human growth hormone, rhGH, produced by Serono S. A. as SEROSTIM®",lean body mass and weight,"[1]; 0.1 mg/kg/day, 12 weeks, compared to placebo",significant increases
same,tolerability of relatively high doses,"[1]; 6 mg/day s.c., many patients with overt AIDS wasting",without developing adverse effects that require dose reduction or cessation of therapy
same,insulin-like growth factor-I (IGF-I) levels,patients with HIV/AIDS; 2.5 mg qod,no significant change
same,insulin-like growth factor-I (IGF-I) levels,patients with HIV/AIDS; 5.0 mg qod,increased significantly
same,improvement in fat maldistribution,[2],do not experience as dramatic an improvement
same,effectiveness of a three-month course of therapy,"[3]; over 10,000 HIV/AIDS wasting patients since 1996",effective in the majority of patients
same,visceral adiposity,"patients with HADDS; Engleson et al. 1999, Mauss et al. 1998",reduce
same,solitary lipomas,patients with HADDS; Milano et al. 1999,reduce
same,buffalo hump,"patients with HADDS; Torres 1998, 1999",reduce
same,abdominal girth,patients with HADDS; Wanke et al. 1999,reduce
same,HDL cholesterol and glucose,patients with HADDS; [4],increased
same,total cholesterol and fasting triglycerides,patients with HADDS; [4],dropped significantly
same,collective side effects of rhGH administration,"patients with HADDS; human, in vivo","swelling of the fingers or paresthesia due to tissue turgor, a few transient elevations of fasting glucose and triglycerides"
same,lean body mass and body cell mass,patients with HADDS; quantified by bioelectrical impedance analysis,increased
same,change in peripheral lipodystrophy,patients with HADDS; [5],no change
same,increase in fat free mass,patients with HADDS; [5],5 to 10%
same,size and firmness of buffalo humps,patients with HADDS; [5],significantly reduces
same,truncal adiposity,patients with HADDS; [5],reduces
same,"changes in body weight, total body fat, or blood lipids","patients with HADDS; rhGH 4 to 6 mg/day, during the treatment period (Torres 1999)",no significant or consistent changes
same,"abnormally accumulated fat, compared to baseline","patients with HADDS; s.c., 3 to 6 mg per day for 12 to 24 weeks",significantly reduces
leptin: protein hormone of approximately 16 kDa encoded by the obese (ob) gene; recombinant mouse or human leptin,adipose tissue,"normal mice; mouse, in vivo",profound depletion of adipose tissue
same,body weight,"normal mice; mouse, in vivo",lose weight
same,lean mass,"normal mice; mouse, in vivo",increases in lean mass
same,lipolysis in adipose tissue,"normal mice; no apparent effect on lean tissue, species not stated",promotes lipolysis
same,food intake,ob/ob mice; within a few days,dramatic reduction
same,reduction in body weight,ob/ob mice; within a month,~50%
"hGH: Human growth hormone, single polypeptide chain of 191 amino acids having two disulfide bonds",weight loss preceding the study,"patients with HIV/AIDS; 5.0 mg qod, four patients who completed the study",reversed
same,safety of supraphysiologic doses,"[3]; in vivo, sc",safely administered
